Measurements taken from US9060966B2, “Use of 2,5-dihydroxybenzene derivatives for the treatment of arthritis and pain” (priority 2006, dated 2015).
Entries after “also recorded” stand apart in the source; their conditions may differ.

Columns and labels:
[1] = target: fibroblast growth factor-1 (FGF-1) (Homo sapiens, UniProt P05230); assay: Co-crystallisation with FGF-1 (crystal diffraction of complexes); type: binding
Text: (§1) FIG. 24. 2-acetoxy-5-hydroxybenzenesulfonic acid co-crystallized with fibroblast growth factor-1. […] The compound occupies a place that is very close to that described occupied by 2,5-dihydroxybenzenesulfonic acid, the aromatic ring of which forms a cation-σ bond with the N^ε group of lysine 132, which is marked in panel A as reference. […] In panels A and B, the protein surface is colored according to its electrostatic potential (light grey: negative charge; dark grey: positive charge; white: lack of charge).
as §1, with “25. 5-acetoxy-2-hydroxybenzenesulfonic” for “24. 2-acetoxy-5-hydroxybenzenesulfonic”, “cation-π” for “cation-σ”
as §1, with “26. 2,5-diacetoxybenzenesulfonic” for “24. 2-acetoxy-5-hydroxybenzenesulfonic”, “cation-π” for “cation-σ”
Based on the crystal diffraction of the FGF-1:2-acetoxy-5-hydroxybenzene sulfonic acid, FGF-1:5-acetoxy-2-hydroxybenzene sulfonic acid and FGF-1:2,5-diacetoxybenzene sulfonic acid complexes, the structures of the complexes were calculated and represented. FIGS. 24, 25 and 26, which show the surface of the dyed protein according to its electrostatic potential (light grey: negative charge; dark grey: positive charge; white: lack of charge), show the manner in which 2-acetoxy-5-hydroxybenzene sulfonic acid, 5-acetoxy-2-hydroxybenzene sulfonic acid and 2,5-diacetoxybenzene sulfonic acid interact, respectively, with FGF-1.

[2] = tested on: methacholine induced bronchoconstriction in OVA-sensitized mice; assay: Experimentally induced (OVA) asthma in mice: methacholine bronchoconstriction and BAL cell count; type: in vivo; conditions: for methacholine induced bronchoconstriction (Penh): methacholine 5 and 20 mg/mL
Protocol: Effect of potassium 2,5-diacetoxybenzene sulfonate (DABS) on bronchoconstriction in asthmatic mice treated with methacholine. All the mice were exposed to nebulized methacholine (MC; 5 and 20 mg/ml). Bronchoconstriction was determined as the enhanced pause. (Penh), calculated as described in the corresponding example (example 13).
Effect of potassium 2,5-diacetoxybenzene sulfonate (DABS) on the inflammatory cell count in the bronchoalveolar lavage (BAL) in asthmatic mice.
6-9 week old Balb/c mice were used. The ovoalbumin (OVA)/aluminum complex was obtained after dissolving OVA (500 μg/mL) in PBS, and mixing it with an equal volume of 10% aluminum potassium sulfate at pH 6.5 for 1 hour. After centrifuging the pellet (750×g for 5 minutes) the OVA/aluminum pellet was resuspended in distilled water. On day 0, the mice were injected intraperitoneally injected with 100 μg of OVA/aluminum. Eight days later, the mice were anesthetized and exposed to 250 μg of OVA. Later, they were administered 125 μg of OVA on days 15, 18 and 21. […].
The following treatments were administered to the animals: (i.p.) vehicle from day 2, potassium 2,5-diacetoxybencene sulfonate (DABS; 100 mg/kg/day, i.p.) from day 2, DABS (100 mg/kg/day, i.p.) from day 8 and Combivent (20 μg/200 μg in aerosol) on days 20, 21 and 22, the latter as a reference treatment.
In order to evaluate the pulmonary function, the response to methacholine in conscious mice was determined, 24 hours after the last exposure to OVA. The mice were exposed to increasing methacholine concentrations (5 and 20 mg/mL) in the form of aerosol using an ultrasonic nebulizer during 2 minutes. The degree of bronchoconstriction was expressed as the enhanced pause (Penh) which correlates to the mouse air resistance, impedance and pressure within the pleura. The Penh enh was calculated using the formula Penh=[([…]/Rt−1)×(PEF/PIF)], where Te is expiratory time, Rt is relaxation time, PEF is peak expiratory flow and PIF is peak inspiratory flow x 0.67 coefficient.
After measuring airway hyperreactivity, the mice were sacrificed and the bronchoalveolar lavage (BAL) of the right lung was collected. The total number of cells in the BAL fluid was determined.

infantile hemangioma = assay: Topical treatment of infantile hemangioma in a child; type: in vivo, human; conditions: cream 2.5%, topical twice a day, 1, 2 and 3 months, one child
Text: Photographs of a child showing the effects of the topical treatment with a cream comprising 2,5-dihydroxybenzenesulfonic (DHBS) (2.5%) in a baby suffering infantile hemangioma.
The cream comprising 2,5-dihydroxybenzene sulfonic (2.5%) was topically applied twice a day for 3 months on the face of a child suffering from infantile hemangioma.

pterygium = assay: Topical treatment of pterygium in a patient; type: in vivo, human; conditions: 2.5% solution, one drop four times per day, two weeks
Text: FIG. 3. […] The treatment consists of the application of 4 drops of said solution daily, for two weeks.
The solution was applied topically to a patient suffering from unilateral pterygium, as one drop four times per day.

Nakagawa angioblastoma = assay: Topical treatment of Nakagawa angioblastoma (hemangioblastoma) in a child; type: in vivo, human; conditions: cream 2.5%, topical twice a day, 1 month, one child
Text: Photographs showing the effects of a topical treatment with a cream comprising 2,5-dihydroxybenzenesulfonic (DHBS) in a child suffering from Nakagawa angioblastoma.
The cream comprising 2,5-dihydroxybenzene sulfonic (2.5%) was topically applied twice a day during 1 month on the face of the child suffering from Nakagawa angioblastoma.

[3] = tested on: angiogenesis induced by Helicobacter pylori in the human gastric mucosa; assay: Angiogenesis induced by Helicobacter pylori in the human gastric mucosa (biopsies); type: in vivo; conditions: 500 mg/day oral, one week, one patient
Protocol: FIG. 5. Helicobacter pylori • A) Hematoxylin-eosin staining of the gastric mucosa of a sample obtained from a patient infected with Helicobacter pylori before treatment. The arrows and the asterisk indicate the formation of neovessels in the mucosa protruding the gastric lumen through the lost epithelial layer. • B) Hematoxylin-eosin staining of the gastric mucosa of a sample obtained from the same patient infected with Helicobacter pylori after administering 500 mg of 2,5-dihydroxybenzenesulfonate (DHBS) daily for a week.
A biopsy of the gastric mucosa was performed in a patient chronically infected with Helicobacter pylori before the oral treatment with 2,5-dihydroxybenzene sulfonic acid (Dobesilate) (500 mg/day). After a week of treatment, another biopsy was performed in the patient. Both biopsies were evaluated using hematoxylin-eosin staining. […] Microscopically, the arrows and the asterisk indicate the formation of neovessels in the mucosa protruding the gastric lumen through the lost epithelial layer. […] This example illustrates that the use of DHBS is beneficial in the treatment of gastritis and angiogenesis caused by the infection with Helicobacter pylori.

fibroblast growth factor-1 (FGF-1), sequence (P05230 whole entry, species assumed): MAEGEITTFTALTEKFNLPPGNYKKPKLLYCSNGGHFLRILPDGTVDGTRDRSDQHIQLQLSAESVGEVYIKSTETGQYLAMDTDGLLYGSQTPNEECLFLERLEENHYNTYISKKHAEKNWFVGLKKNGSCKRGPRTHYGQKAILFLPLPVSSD

CC(=O)Oc1ccc(OC(C)=O)c(S(=O)(=O)[O-])c1.[K+] [DABS, potassium 2,5-diacetoxybenzene sulfonate]
acetoxyl groups of the compound when bound to the protein ([1]; electron density contoured at 1σ): conserve the acetoxyl groups
binding site on FGF-1 in the crystal complex ([1]; reference: site of 2,5-dihydroxybenzene sulfonic acid, lysine 132): a site that is very close to the one that has been described occupied by 2,5-dihydroxybenzene sulfonic acid
reduction of BAL cells compared with Combivent ([2]; 100 mg/kg/day i.p.): even more than the treatment with Combivent
methacholine induced bronchoconstriction (Penh) ([2]; 100 mg/kg/day i.p. from day 2): completely prevented
methacholine induced bronchoconstriction (Penh) ([2]; 100 mg/kg/day i.p. from day 8): completely prevented
presence of cells in bronchoalveolar lavage (BAL) ([2]; 100 mg/kg/day i.p., from day 2 or day 8): significantly reduced
increase of Penh after exposure to methacholine vs saline ([2]; DABS groups, 100 mg/kg/day i.p.): do not show a significant increase

O=S(=O)(O)c1cc(O)ccc1O [DHBS, 2,5-dihydroxybenzenesulfonic acid]
hemangioma lesion appearance (infantile hemangioma): substantial recovery of the lesion
pterygium (pterygium): partial reversal of the pterygium
intensity of the coloration caused by the lesion (Nakagawa angioblastoma): decrease in the intensity of the coloration
intensity of the coloration caused by the lesion (Nakagawa angioblastoma; listed as 2,5-dihydroxybenzene sulfonic): reduction in the intensity of the reddish coloration
angiogenic activity in the gastric mucosa [3]: less angiogenic activity
appearance of gastric mucosa / epithelial membrane, hematoxylin-eosin [3]: apparently normal; also recorded: normal appearance
symptoms of congestion and erythema of the gastric mucosa [3]: the symptoms of congestion and erythema disappear
